Results taken from ChEMBL document CHEMBL1255301, “Activity of Tigecycline against Coryneform Bacteria of Clinical Interest and Listeria monocytogenes” (2008).
Converted amounts (≈) assume the structure as drawn.

Legend:
Type in all cases: functional
[1] = system: Corynebacterium amycolatum; assay: Antimicrobial activity against Corynebacterium amycolatum isolates by CLSI M45-A protocol based microdilution method
Corynebacterium jeikeium = assay: Antimicrobial activity against Corynebacterium jeikeium isolates by CLSI M45-A protocol based microdilution method
[2] = system: Corynebacterium minutissimum; assay: Antimicrobial activity against Corynebacterium minutissimum isolates by CLSI M45-A protocol based microdilution method
[3] = system: Corynebacterium pseudodiphtheriticum; assay: Antimicrobial activity against Corynebacterium pseudodiphtheriticum isolates by CLSI M45-A protocol based microdilution method
Corynebacterium striatum = assay: Antimicrobial activity against Corynebacterium striatum isolates by CLSI M45-A protocol based microdilution method
[4] = system: Corynebacterium urealyticum; assay: Antimicrobial activity against Corynebacterium urealyticum isolates by CLSI M45-A protocol based microdilution method
Corynebacterium xerosis = assay: Antimicrobial activity against Corynebacterium xerosis isolates by CLSI M45-A protocol based microdilution method
[5] = system: Arcanobacterium haemolyticum; assay: Antimicrobial activity against Arcanobacterium haemolyticum isolates by CLSI M45-A protocol based microdilution method
Prescottella equi = assay: Antimicrobial activity against Rhodococcus equi isolates by CLSI M45-A protocol based microdilution method
Listeria monocytogenes = assay: Antimicrobial activity against Listeria monocytogenes isolates by CLSI M45-A protocol based microdilution method
[6] = Rhodococcus (subgen. Prescottella) equi

Compound	MIC50 [1] [mg/L]	MIC90 [1] [mg/L]	MIC50 (Corynebacterium jeikeium) [mg/L]	MIC90 (Corynebacterium jeikeium) [mg/L]	MIC50 [2] [mg/L]	MIC50 [3] [mg/L]	MIC90 [3] [mg/L]	MIC50 (Corynebacterium striatum) [mg/L]	MIC90 (Corynebacterium striatum) [mg/L]	MIC50 [4] [mg/L]	MIC90 [4] [mg/L]	MIC50 (Corynebacterium xerosis) [mg/L]	MIC50 [5] [mg/L]	MIC90 [5] [mg/L]	MIC50 (Prescottella equi; [6]) [mg/L]	MIC90 (Prescottella equi; [6]) [mg/L]	MIC50 (Listeria monocytogenes) [mg/L]	MIC90 (Listeria monocytogenes) [mg/L]	MIC [2] [mg/L]	MIC (Corynebacterium jeikeium) [mg/L]	also measured
C[C@H]1COc2c(N3CCN(C)CC3)c(F)cc3c(=O)c(C(=O)O)cn1c23.C[C@H]1COc2c(N3CCN(C)CC3)c(F)cc3c(=O)c(C(=O)O)cn1c23.O [LEVOFLOXACIN]	> 32	> 32	4	> 32	0.06	0.25	4	> 32	> 32	> 32	> 32	32	0.5	0.5	1	2	0.5	1	–	–	–
GENTAMICIN	8	16	> 32	> 32	0.06	0.06	0.06	2	8	> 32	> 32	8	0.5	0.5	–	–	0.25	0.125	< 0.03	–	MIC (Corynebacterium xerosis): < 0.03 mg/L; MIC50 (Prescottella equi): 0.5 mg/L; MIC90 (Prescottella equi): 1 mg/L
CCC[C@@H]1C[C@@H](C(=O)N[C@@H]([C@H]2O[C@H](SC)[C@H](O)[C@@H](O)[C@H]2O)[C@H](C)Cl)N(C)C1 [CLINDAMYCIN]	> 16	> 16	> 16	> 16	> 16	> 16	> 16	> 16	> 16	> 16	> 16	> 16	≤ 0.015	≤ 0.015	2 (≈ 4.71 µM)	8 (≈ 18.8 µM)	1 (≈ 2.35 µM)	2 (≈ 4.71 µM)	–	> 16	MIC [5]: ≤ 0.015 mg/L
CN[C@H](CC(C)C)C(=O)N[C@H]1C(=O)N[C@@H](CC(N)=O)C(=O)N[C@H]2C(=O)N[C@H]3C(=O)N[C@H](C(=O)N[C@H](C(=O)O)c4cc(O)cc(O)c4-c4cc3ccc4O)[C@H](O)c3ccc(c(Cl)c3)Oc3cc2cc(c3O[C@@H]2O[C@H](CO)[C@@H](O)[C@H](O)[C@H]2O[C@H]2C[C@](C)(N)[C@H](O)[C@H](C)O2)Oc2ccc(cc2Cl)[C@H]1O [VANCOMYCIN]	0.25 (≈ 0.173 µM)	0.5 (≈ 0.345 µM)	0.06 (≈ 0.0414 µM)	0.25 (≈ 0.173 µM)	0.25 (≈ 0.173 µM)	0.25 (≈ 0.173 µM)	0.25 (≈ 0.173 µM)	0.25 (≈ 0.173 µM)	0.5 (≈ 0.345 µM)	0.25 (≈ 0.173 µM)	0.5 (≈ 0.345 µM)	0.25 (≈ 0.173 µM)	0.25 (≈ 0.173 µM)	0.5 (≈ 0.345 µM)	0.5 (≈ 0.345 µM)	0.5 (≈ 0.345 µM)	0.5 (≈ 0.345 µM)	1 (≈ 0.69 µM)	–	0.06 (≈ 0.0414 µM)	–
CN(C)c1ccc(O)c2c1C[C@H]1C[C@H]3[C@H](N(C)C)C(O)=C(C(N)=O)C(=O)[C@@]3(O)C(O)=C1C2=O [MINOCYCLINE]	0.06 (≈ 0.131 µM)	0.25 (≈ 0.546 µM)	0.06 (≈ 0.131 µM)	0.25 (≈ 0.546 µM)	≤ 0.03	0.06 (≈ 0.131 µM)	0.06 (≈ 0.131 µM)	4 (≈ 8.74 µM)	8 (≈ 17.5 µM)	0.06 (≈ 0.131 µM)	0.5 (≈ 1.09 µM)	0.25 (≈ 0.546 µM)	≤ 0.03	4 (≈ 8.74 µM)	0.25 (≈ 0.546 µM)	0.25 (≈ 0.546 µM)	0.06 (≈ 0.131 µM)	0.06 (≈ 0.131 µM)	≤ 0.03	0.06 (≈ 0.131 µM)	MIC [5]: ≤ 0.03 mg/L
CN(C)[C@@H]1C(O)=C(C(N)=O)C(=O)[C@@]2(O)C(O)=C3C(=O)c4c(O)cccc4[C@@](C)(O)[C@H]3C[C@@H]12 [TETRACYCLINE]	0.125 (≈ 0.281 µM)	0.5 (≈ 1.13 µM)	0.06 (≈ 0.135 µM)	–	0.25 (≈ 0.563 µM)	0.125 (≈ 0.281 µM)	0.25 (≈ 0.563 µM)	16 (≈ 36 µM)	> 32	0.25 (≈ 0.563 µM)	16 (≈ 36 µM)	0.5 (≈ 1.13 µM)	0.125 (≈ 0.281 µM)	16 (≈ 36 µM)	8 (≈ 18 µM)	8 (≈ 18 µM)	0.5 (≈ 1.13 µM)	0.5 (≈ 1.13 µM)	–	0.06 (≈ 0.135 µM)	–
C[C@H]1c2cccc(O)c2C(=O)C2=C(O)[C@]3(O)C(=O)C(C(N)=O)=C(O)[C@@H](N(C)C)[C@@H]3[C@@H](O)[C@@H]21.O [DOXYCYCLINE]	0.06	0.5	0.03	1	0.25	0.125	0.125	8	> 16	0.125	4	0.5	0.125	8	1	1	0.125	0.125	–	–	–
CN(C)c1cc(NC(=O)CNC(C)(C)C)c(O)c2c1C[C@H]1C[C@H]3[C@H](N(C)C)C(O)=C(C(N)=O)C(=O)[C@@]3(O)C(O)=C1C2=O [TIGECYCLINE]	0.125 (≈ 0.213 µM)	0.25 (≈ 0.427 µM)	≤ 0.015	0.03 (≈ 0.0512 µM)	≤ 0.015	≤ 0.015	0.03 (≈ 0.0512 µM)	0.5 (≈ 0.854 µM)	1 (≈ 1.71 µM)	0.03 (≈ 0.0512 µM)	0.06 (≈ 0.102 µM)	0.125 (≈ 0.213 µM)	≤ 0.015	≤ 0.015	0.25 (≈ 0.427 µM)	0.5 (≈ 0.854 µM)	0.06 (≈ 0.102 µM)	0.125 (≈ 0.213 µM)	≤ 0.003	≤ 0.015	MIC [3]: ≤ 0.015 mg/L; MIC [5]: ≤ 0.015 mg/L
CO/N=C(\C(=O)N[C@@H]1C(=O)N2C(C(=O)O)=C(COC(N)=O)CS[C@H]12)c1ccco1 [CEFUROXIME]	0.5 (≈ 1.18 µM)	2 (≈ 4.71 µM)	> 32	> 32	0.5 (≈ 1.18 µM)	0.06 (≈ 0.141 µM)	0.125 (≈ 0.295 µM)	1 (≈ 2.36 µM)	2 (≈ 4.71 µM)	> 32	> 32	2 (≈ 4.71 µM)	0.125 (≈ 0.295 µM)	0.25 (≈ 0.589 µM)	8 (≈ 18.9 µM)	16 (≈ 37.7 µM)	> 32	> 32	–	–	–
